Measured values published in patent publication US10201535B2 (priority 2011, dated 2019).

Legend:
[1] = Method: To assure the integrity of each skin section, its permeability to tritiated water was determined before application of the test products.
[2] = system: LL-37-induced skin inflammation; test: LL-37-Induced Skin Inflammation Mouse Model (ear swelling); format: in vivo; settings: at 6 and 9 hrs after topical treatment, gel on ears of BALB/c mice
Method: One hour following application, the left ear was intradermally injected with LL-37 peptide and the right ear was injected with phosphate-buffered saline (PBS). Ear thickness measurements were made with a digital caliper (Mitutoyo) at various timepoints up to 8 hrs post-injection with LL-37. Ear swelling is an indicator of inflammation.
The data are the mean values from 9-10 mice per group.

[3] = system: 37° C. induced vessel dilation (cutaneous blood flow) in rat paws; test: Rat Blood Flow Assay (laser Doppler flowmetry, hind foot pad); format: in vivo; settings: 4 days of topical dosing (once per day), 0.1%, hairless CD rats
Method: A laser Doppler microvascular perfusion monitor (laser Doppler flowmetry technique, LDF) was used to monitor red blood cell perfusion in the microvasculature of the hind foot pad. The laser doppler flowmetry (LDF) is an OxyFlo Microvascular Perfusion Monitor, from Oxford Optronix Ltd. UK.
Briefly, 15 μL of test articles was applied topically once, or repeatedly (once daily for 4 consecutive days) to one hind foot pad of anaesthetized hairless CD rats and 15 μL of vehicle was applied to the other footpad.
At various timepoints up to 8 hrs following the last test article administration, dynamic blood flow changes were measured and recorded every 15 seconds for 4 minutes per temperature interval for 5 intervals (22° C.→37° C.→4° C.→37° C.→22° C.).
Rats were placed on a 37° C. heat pad to increase their temperature and on an ice pad to decrease their temperature to 4° C. The levels of blood flow in the two paws were compared.
The % blood flow inhibition is calculated as the % difference in the AUC of peak 1 (first 8 min heating and cooling interval) of the laser doppler recordings between the drug-treated and vehicle-treated paws. Data are the mean % inhibition values from 8-10 rats per group.

[4] = system: UVB-induced erythema, cutaneous vessel dilation and tactile hypersensitivity in SKH1 hairless mice; test: Ultraviolet B-Induced Mouse Sunburn Model; format: in vivo
Text: SKH1 hairless mice, lying on their stomachs with their left sides covered, were exposed to UVB at an intensity of 120 mJ/cm^2 for 91 sec. […] At various timepoints up to 48 hrs post UVB-irradiation, the following assessments were made:
1. Vasculature area in the exposed and unexposed ears by image analysis of digital photos using ImagePro Premier (Media Cybernetics) software. Images are converted to gray-scale, expanded and thresholding, based on each ear's baseline pixel values, is applied to the images. Thresholding differentiates the desired “object” features (i.e. vasculature network) from the background (i.e. skin tissue). The “object” pixels are then quantified and reported as the vasculature area.
2. Erythema on the exposed and unexposed back using a Chromameter (Konica Minolta).
3. Tactile hypersensitivity assessment using a paint brush test. The hypersensitivity is assessed by light stroking of the flank of the mice with a small paint brush every 5 min over 35 min. The behavioral response is scored as follows: 0, no response; 1, mild squeaking with attempts to move away from the brush; 2, vigorous squeaking evoked by the brush, biting at the brush and strong efforts to escape. The scores at the eight timepoints are summed so the maximum hypersensitivity score for each mouse can be 16. The exposed (right) and unexposed (left) flanks were scored independently.

[5] = system: UVB-exposed skin of SKH1 hairless mice; test: Mouse Model of UV-Induced Erythema (histology of back skin); format: in vivo; settings: for mice with overall healing good to excellent / EPIDERMIS Hyperplasia / DERMIS Congestion / DERMIS Edema / DERMIS Infiltrates / EPIDERMIS Disorganization / EPIDERMIS Necrosis / EPIDERMIS Separation: skin 48 hours after UVB; for EPIDERMIS Hyperplasia / DERMIS Congestion / DERMIS Edema / DERMIS Infiltrates / EPIDERMIS Disorganization / EPIDERMIS Necrosis / EPIDERMIS Separation: mean grade
Method: The right backs of male SKH1 hairless mice were exposed to 120 mJ/cm^2 UVB radiation, while the left sides were shielded. […] An additional group with vehicle applied topically at 20 minutes post UVB exposure served as a control. Samples of skin from the backs from both left and right sides were collected 48 hours following UVB exposure and examined histologically.
Each endpoint is graded on a scale of 0-4 (0=no findings, 1=minimal, 2=mild, 3=moderate, 4=marked). Data are expressed as the mean of values from 6 mice per group.

[6] = 0.1% topical, 20 minutes following UVB exposure
[7] = scale 0-4, 0.1% topical 20 min after UVB
[8] = scale 0-4, 0.1% topical 4 hr after UVB
[9] = scale 0-4, 0.1% topical 8 hr after UVB

SMILES: c1cnc2c(c1)CC[C@H](Cc1c[nH]cn1)C2 [(S)-(+)-7-(1H-Imidazol-4-ylmethyl)-5,6,7,8-tetrahydro-quinoline]
- penetration into and through skin [1]: does penetrate into and through ex vivo human trunk skin
- distribution in skin layers (mass recovered) ([1]; 48 hour dose exposure, 0.58% (w/w) dose, FIG. 3): higher concentration in the epidermis
- rate of percutaneous absorption (flux into receptor solution) ([1]; human): increased rate of flux at the 18 and 36 hr timepoints
- inhibition of LL-37-induced skin inflammation (ear swelling) [2]: statistically significant inhibition
- duration of statistically significant inhibition of 37° C. induced vessel dilation [3]: at least 6 hrs
- duration of statistically significant reduction of erythema to nearly baseline levels (chromameter) ([4]; topical dosing to the back 30 min following UVB exposure): at least 48 hrs
- tactile hypersensitivity (paint brush test) ([4]; topical dosing to the back 30 min following UVB exposure, assessed 4 hrs following UVB irradiation, both UV-exposed and control sides): statistically significant reduction of tactile hypersensitivity
- duration of statistically significant cutaneous vasoconstriction (reduction of cutaneous vasculature area) to nearly baseline levels ([4]; topical dosing to the ear 30 min following UVB exposure): at least 48 hrs
- edema, mixed inflammatory cell infiltrates and vascular congestion of the underlying dermis [5, 6]: significantly reduced
- outcome of healing of UVB-exposed back skin [5, 6]: significantly improved the outcome of healing
- mice with overall healing good to excellent ([5]; 0.1% topical, treated at 20 minutes post UVB exposure): 75%
- mice with overall healing good to excellent ([5]; 0.1% topical, treated at 4 hours post UVB exposure): 50%
- mice with overall healing good to excellent ([5]; 0.1% topical, treated at 8 hours post UVB exposure): 60%
- mice with epidermal failure (moderate to marked separation and necrosis) ([5]; 0.1% topical, treated up to 8 hours following UVB exposure (all treated mice)): 8%
- EPIDERMIS Hyperplasia ([5]; scale 0-4 (0=no findings, 4=marked), 0.1% topical 20 min after UVB): 3.0
- DERMIS Congestion [5, 7]: 1.0
- DERMIS Edema [5, 7]: 0.5
- DERMIS Infiltrates [5, 7]: 0.8
- EPIDERMIS Disorganization [5, 7]: 2.0
- EPIDERMIS Necrosis [5, 7]: 0.5
- EPIDERMIS Separation [5, 7]: 0.3
- DERMIS Congestion [5, 8]: 1.8
- DERMIS Edema [5, 8]: 2.0
- DERMIS Infiltrates [5, 8]: 2.0
- EPIDERMIS Disorganization [5, 8]: 3.0
- EPIDERMIS Hyperplasia [5, 8]: 2.3
- EPIDERMIS Necrosis [5, 8]: 1.3
- EPIDERMIS Separation [5, 8]: 1.3
- DERMIS Congestion [5, 9]: 1.0
- DERMIS Edema [5, 9]: 1.5
- DERMIS Infiltrates [5, 9]: 0.8
- EPIDERMIS Disorganization [5, 9]: 2.0
- EPIDERMIS Hyperplasia [5, 9]: 3.3
- EPIDERMIS Necrosis [5, 9]: 1.0
- EPIDERMIS Separation [5, 9]: 1.3
